{
  "source": "paper PMC2754045",
  "about": "(Biochemistry, 2009)",
  "key": {"mTRΔ8 [1]": {"target": "T1, mTRΔ8 (Mus musculus, UniProt Q9JLT4)", "test": "Substrate reduction by truncated mammalian TR", "type": "biochemical", "conditions": "for pH optimum of substrate reduction: truncated Δ8 enzyme; for Reduction by the truncated enzyme (in words): direct reduction by the N-terminal reaction center"}, "DmTRΔ8 [2]": {"target": "T2, DmTRΔ8 (Drosophila melanogaster, UniProt P91938)", "T2 sequence (P91938 1-483 isoform P91938-2 limits assumed)": "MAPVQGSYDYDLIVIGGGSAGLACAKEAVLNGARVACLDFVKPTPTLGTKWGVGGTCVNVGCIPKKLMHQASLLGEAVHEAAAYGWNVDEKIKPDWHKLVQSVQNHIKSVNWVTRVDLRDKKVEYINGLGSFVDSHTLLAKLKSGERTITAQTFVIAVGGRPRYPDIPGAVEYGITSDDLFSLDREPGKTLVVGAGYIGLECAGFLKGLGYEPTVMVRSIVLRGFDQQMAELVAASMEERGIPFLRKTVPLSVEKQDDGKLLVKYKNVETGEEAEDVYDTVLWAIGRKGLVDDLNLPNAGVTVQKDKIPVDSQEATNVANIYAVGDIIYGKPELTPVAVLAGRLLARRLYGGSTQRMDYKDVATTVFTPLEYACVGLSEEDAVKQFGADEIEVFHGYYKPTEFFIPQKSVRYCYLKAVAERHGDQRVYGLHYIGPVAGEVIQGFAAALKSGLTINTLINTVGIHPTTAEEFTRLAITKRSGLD", "test": "Substrate reduction by truncated Drosophila TR", "type": "biochemical"}, "DmTR-SCCS": {"target": "DmTR-SCCS (Drosophila melanogaster, UniProt P91938)", "sequence (P91938 1-491 isoform P91938-2)": "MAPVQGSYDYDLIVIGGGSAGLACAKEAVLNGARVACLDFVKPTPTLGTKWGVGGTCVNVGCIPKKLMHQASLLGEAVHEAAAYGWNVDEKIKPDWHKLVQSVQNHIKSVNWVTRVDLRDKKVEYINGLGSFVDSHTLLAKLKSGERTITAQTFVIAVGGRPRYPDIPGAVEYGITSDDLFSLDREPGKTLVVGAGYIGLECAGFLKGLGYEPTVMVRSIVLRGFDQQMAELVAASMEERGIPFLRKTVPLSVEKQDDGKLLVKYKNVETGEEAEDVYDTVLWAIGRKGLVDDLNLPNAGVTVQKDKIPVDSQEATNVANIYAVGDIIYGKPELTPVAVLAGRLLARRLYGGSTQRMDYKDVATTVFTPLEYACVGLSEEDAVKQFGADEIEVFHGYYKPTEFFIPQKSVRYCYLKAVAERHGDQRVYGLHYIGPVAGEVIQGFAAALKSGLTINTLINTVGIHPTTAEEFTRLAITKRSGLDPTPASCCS", "test": "Substrate reduction by full-length Drosophila TR"}, "mTR-GCUG [3]": {"target": "T3, mTR-GCUG (Mus musculus, UniProt Q9JLT4)", "test": "Substrate reduction by full-length wild type mammalian TR"}, "[4]": {"conditions": "cited from earlier work"}, "mTRΔ8 [5]": {"target": "T1, mTRΔ8", "test": "Inhibition of TR by gold compounds", "type": "biochemical", "conditions": "truncated enzyme missing C-terminal tail, 2 nM enzyme, 3 mM DTNB, pH 7.4"}, "mTR-GCCG": {"target": "mTR-GCCG (Mus musculus, UniProt Q9JLT4)", "type": "biochemical", "conditions": "full-length enzyme without Sec (Cys2 mutant), 4 nM enzyme, 3 mM DTNB, pH 7.4"}, "mTR-GCUG [6]": {"target": "T3, mTR-GCUG", "test": "Inhibition of TR by gold compounds", "type": "biochemical", "conditions": "full-length wild type (Sec) enzyme, 4 nM enzyme, 3 mM DTNB, pH 7.4"}, "DmTRΔ8 [7]": {"target": "T2, DmTRΔ8", "conditions": "pH 7.0; cited from earlier work"}, "mTRΔ8 [8]": {"target": "T1, mTRΔ8", "conditions": "pH 7.0; cited from earlier work"}},
  "note": "Like-named read-outs stand apart in the source and are kept apart here. Marks after values point to notes of the source that are not given here. Bridges are numbered along the chain shown (N, C = ends). Where no end group is shown, it is not given here.",
  "data": [
    {"compound": "O=C(O)c1cc(SSc2ccc([N+](=O)[O-])c(C(=O)O)c2)ccc1[N+](=O)[O-]", "note": "[DTNB, 5,5′dithio-bis(2-nitrobenzoic acid), reference compound]", "values": [
      {"measurement": "Activity at 5 mM Substrate", "setting": "mTRΔ8 [1]; pH 7.0", "result": 2430, "unit": "mol NADPH/min/mol TR"},
      {"measurement": "Activity at 5 mM Substrate", "setting": "DmTRΔ8 [2]; pH 7.0", "result": 519, "unit": "mol NADPH/min/mol TR"}
    ]},
    {"compound": "O=C(O)CCCC[C@@H]1CCSS1", "note": "[Lipoic Acid, lipoic acid]", "values": [
      {"measurement": "kcat increase compared to the WT enzyme at pH 7.0", "setting": "mTRΔ8 [1]; mTRΔ8 at pH 6.1", "result": "~3.6", "unit": "fold"},
      {"measurement": "Activity at 5 mM Substrate", "setting": "mTRΔ8 [1]; pH 6.1", "result": 102, "unit": "mol NADPH/min/mol TR"},
      {"measurement": "Activity at 5 mM Substrate", "setting": "mTRΔ8 [1]; pH 7.0", "result": 87.7, "unit": "mol NADPH/min/mol TR"},
      {"measurement": "pH optimum of substrate reduction", "setting": "mTRΔ8 [1]", "result": 6.1},
      {"measurement": "pH optimum of substrate reduction", "setting": "DmTR-SCCS; full-length DmTR", "result": "~7.5"},
      {"measurement": "pH optimum of substrate reduction", "setting": "mTR-GCUG [3]; full-length enzyme", "result": "~7.5"},
      {"measurement": "Turnover faster in comparison to DTT(ox)", "setting": "DmTRΔ8 [2]; 5 mM substrate, pH 7.0", "result": 190, "unit": "fold"},
      {"measurement": "Activity at 5 mM Substrate", "setting": "DmTRΔ8 [2]; pH 7.0", "result": 20.8, "unit": "mol NADPH/min/mol TR"},
      {"measurement": "pH optimum of substrate reduction", "setting": "DmTRΔ8 [2]; truncated DmTRΔ8", "result": "~7.5"}
    ]},
    {"compound": "N[C@@H](CSSC[C@H](N)C(=O)O)C(=O)O", "note": "[cystine]", "values": [
      {"measurement": "Reduction by the truncated enzyme (in words)", "setting": "mTRΔ8 [1]", "result": "could not be reduced"},
      {"measurement": "Reduction by the WT enzyme (in words)", "setting": "mTR-GCUG [3]", "result": "cannot be reduced"},
      {"measurement": "Leaving Group pKa", "setting": "[4]; thiolate", "result": "~ 8.3"}
    ]},
    {"compound": "N[C@@H](C[Se][Se]C[C@H](N)C(=O)O)C(=O)O", "note": "[selenocystine]", "values": [
      {"measurement": "Reduction by the truncated enzyme (in words)", "setting": "mTRΔ8 [1]", "result": "cannot directly reduce"},
      {"measurement": "pH optimum of substrate reduction", "setting": "mTRΔ8 [1]", "result": "~8.0"},
      {"measurement": "Difference in activities between the mammalian enzyme and DmTR", "setting": "DmTR-SCCS; pH 7.0, 91 μM substrate", "result": "~ 3 fold"}
    ]},
    {"compound": "O=[Se]([O-])[O-].[Na+].[Na+]", "note": "[selenite, sodium selenite]", "values": [
      {"measurement": "Activity lower than the WT enzyme", "setting": "mTRΔ8 [1]; mTRΔ8 versus WT, pH 7.0", "result": 6, "unit": "fold"},
      {"measurement": "pH optimum of substrate reduction", "setting": "mTRΔ8 [1]", "result": "~6.0"}
    ]},
    {"compound": "OC[C@H]1O[C@H]([S-])[C@H](O)[C@@H](O)[C@@H]1O.[Au+]", "note": "[aurothioglucose]", "values": [
      {"measurement": "IC50", "setting": "mTRΔ8 [5]", "result": 25, "unit": "nM"},
      {"measurement": "IC50", "setting": "mTR-GCCG", "result": 142, "unit": "nM"},
      {"measurement": "IC50", "setting": "mTR-GCUG [6]", "result": 83, "unit": "nM"}
    ]},
    {"compound": "N[C@@H](CCC(=O)N[C@@H](CSN=O)C(=O)NCC(=O)O)C(=O)O", "note": "[GSNO, S-nitrosoglutathione]", "values": [
      {"measurement": "Leaving Group pKa", "setting": "[4]; HNO in GSNO", "result": 4.7}
    ]},
    {"compound": "PTPASCCS(ox): Cys1-Cys2 vicinal disulfide peptide substrate of DmTR (disulfide 6-7)", "values": [
      {"measurement": "Activity at 5 mM Substrate", "setting": "DmTRΔ8 [7]", "result": 233, "unit": "mol NADPH/min/mol TR"}
    ]},
    {"compound": "CC(=O)OC[C@H]1O[C@@H]([S-])[C@H](OC(C)=O)[C@@H](OC(C)=O)[C@@H]1OC(C)=O.CCP(CC)CC.[Au+]", "note": "[auranofin]", "values": [
      {"measurement": "IC50", "setting": "mTRΔ8 [5]", "result": 850, "unit": "nM"},
      {"measurement": "IC50", "setting": "mTR-GCUG [6]", "result": 75, "unit": "nM"}
    ]},
    {"compound": "PTVTGCCG(ox): peptide containing a Cys1-Cys2 vicinal disulfide bond (8-membered ring) (disulfide 6-7)", "values": [
      {"measurement": "Activity at 5 mM Substrate", "setting": "mTRΔ8 [8]", "result": 0.153, "unit": "mol NADPH/min/mol TR"}
    ]},
    {"compound": "O=S(O)O", "note": "[sulfite]", "values": [
      {"measurement": "Activity as substrate (in words)", "setting": "mTR-GCUG [3]; TR form not stated, data not shown", "result": "unable to detect activity"}
    ]},
    {"compound": "O[C@@H]1CSSC[C@H]1O", "note": "(relative stereo) [DTT(ox), trans-4,5-dihydroxy-1,2-dithiane]", "values": [
      {"measurement": "Activity at 5 mM Substrate", "setting": "mTRΔ8 [1]; pH 7.0", "result": 0.234, "unit": "mol NADPH/min/mol TR"},
      {"measurement": "Activity at 5 mM Substrate", "setting": "DmTRΔ8 [2]; pH 7.0", "result": 0.109, "unit": "mol NADPH/min/mol TR"},
      {"measurement": "Leaving Group pKa", "setting": "[4]", "result": "9.2 ^e"}
    ]},
    {"compound": "NC(=O)CCCCC1CCSS1", "note": "(centres unmarked) [lipoamide]", "values": [
      {"measurement": "Higher activity in presence of 50 mM acetate", "setting": "mTRΔ8 [1]; pH 6.1", "result": 23.6, "unit": "%"},
      {"measurement": "Higher activity in presence of 50 mM acetate", "setting": "mTRΔ8 [1]; pH 7.0", "result": 17.5, "unit": "%"},
      {"measurement": "Drop in Km compared to lipoic acid", "setting": "mTRΔ8 [1]; truncated enzyme", "result": "~3", "unit": "fold"},
      {"measurement": "pH optimum of substrate reduction", "setting": "mTRΔ8 [1]", "result": "~ 8.5"}
    ]}
  ]
}
